Experiments:
Medicago truncatula = assay: Root growth of Medicago truncatula in phosphate deficient medium; type: in vivo; settings: phosphate 10 μM, MC2 5 μM, 10 days, FIG. 14
Description: Medicago truncatula seeds were surface-sterilized as follow: soaking in concentrated sulphuric acid for 10 min, rinsing three times with sterile distilled water, soaking in 10% bleach/0.1% Tween 20 solution for 10 min with gentle agitation and finally by rinsing seeds three times with sterile distilled water. Seeds were germinated 48 h in dark. […] In the phosphate (Pi) deficient medium, NaCl (0.5 mM) was used to replace the equivalent amount of sodium provided by NaH2PO4.). Plants were maintained 10 days under a 14 h light/10 h 150 μm^−2s^−1 dark regime with a temperature of 22/18° C. for light/dark phases in a phytotron.

ferritin = assay: Western blot of plant ferritin on leaf protein extracts; type: in vivo; settings: leaves, high phosphate medium + MC2 5 μM, FIG. 12
Excerpt: After SDS-PAGE in a 12% acrylamide gel and transfer onto a nitrocellulose membrane, ferritin was immunodetected with a primary rabbit polyclonal antibody against AtFER1 and a secondary goat antirabbit antibody conjugated with alkaline phosphatase.
From previous study in the lab, it is known that in response to phosphate starvation, iron is accumulated in cells inducing ferritin accumulation (Hirsch et al., 2006). To determine MC2 effect on iron metabolism, the iron content was quantified by ICP-OES (FIG. 11), accumulation of ferritin was analyzed by Western Blot (FIG. 12) and finally IRT1 gene expression was analyzed, since this gene encodes an iron transporter (FIG. 12).

phopholipase Dz2 = assay: PLDz::GUS, follow-up of the expression of the gene encoding phospholipase Dz2 (GUS staining); type: in vivo, A. thaliana; settings: high phosphate medium + MC2 5 μM, FIG. 10
Description: pPLDZ2:GUS-GFP cell line is as described by Cruz-Ramirez et al. (Cruz-Ramirez et al., 2006), and expressed a GUS-GFP fusion under the control of the pldz2 promoter. […] Plants were examined for GUS activity by dipping the samples in a GUS staining solution (50 mM sodium phosphate buffer pH 7.0; 0.01% Triton X-100, 1 mM K3Fe(CN)6, 1 mM K4Fe(CN)6, 1 mg/ml 5-dromo-4-chloro-3-indolyl (3-D-GLUCURONIDE (X-Gluc A) and incubated at 37° C. over-night. After staining, the plants were fixed 2 hours in 50 mM sodium phosphate buffer pH 7.0; 1% glutaraldehyde; 4% formaldehyde. In response to phosphate starvation, the lipid metabolism is modified (Benning and Ohta, 2005). Plants preferentially synthesize sulpho- and galacto-lipids instead of phospholipids. Several enzymes are involved in this remobilisation.

Cyclin B1 = assay: CycB1::GUS, follow-up of the expression of the gene encoding Cyclin B1 (meristematic activity marker); type: in vivo, A. thaliana; settings: high phosphate medium + MC2 5 μM, FIG. 6
Excerpt: pCycB1;1:GUS cell line is as described by Colón-Carmona et al. (Colon-Carmona et al., 1999), and expresses the GUS reporter under the control of the promoter of the cyclin B1 gene. […] In response to phosphate deficiency, CycB1 is less expressed. Suprisingly, in response to MC2, the meristematic activity is not reduced (FIG. 6). Thus, it can be concludes that the primary root growth inhibition observed in response to the molecule is not due to inhibition of the meristematic activity.

iron transporter IRT1 = assay: IRT1::GUS, follow-up of the expression of the gene encoding the iron transporter IRT1 (GUS staining); type: in vivo, A. thaliana; settings: compound added to the cultivation medium; MC2 5 μM, FIG. 13
Description: pIRT1:GUS cells were obtained as described by Vert et al. (Vert et al., 2002) and carry a irt1 promoter-GUS fusion. […] Plants were examined for GUS activity by dipping the samples in a GUS staining solution (50 mM sodium phosphate buffer pH 7.0; 0.01% Triton X-100, 1 mM K3Fe(CN)6, 1 mM K4Fe(CN)6, 1 mg/ml 5-dromo-4-chloro-3-indolyl (3-D-GLUCURONIDE (X-Gluc A) and incubated at 37° C. over-night. After staining, the plants were fixed 2 hours in 50 mM sodium phosphate buffer pH 7.0; 1% glutaraldehyde; 4% formaldehyde.

A. thaliana = assay: Root growth (primary root) of plants on high phosphate medium supplied with compound; type: in vivo; settings: expressed as a percentage having regard to a control; +P control 100, −P 20
Excerpt: In response to phosphate starvation, the primary root growth is inhibited (Svistoonoff et al., 2007).

[1] = tested on: phosphate transporter PHT1;4; assay: 8′G::GUS, follow-up of the expression of the phosphate transporter PHT1;4 (GUS staining); type: in vivo, A. thaliana; settings: compound added to the cultivation medium
Excerpt: 8′G cell line was obtained as follows: for the PHT1;4 promoter fusion, a 2 kb region upstream of the ORF of PHT1;4 was cloned in the vector pENTR/D-TOPO (pENTRT™/D-TOPO® Cloning Kit, ref. K2400-20, Invitrogen) and transferred to pKGWFS7 (Karimi et al., 2002) by recombination using Gateway BP (Gateway® BP Clonase® enzyme mix, ref. 11789-013, Invitrogen) and LR Clonase enzyme mixes (LR Clonase® II Plus enzyme, ref. 12538-120, Invitrogen), respectively, to produce the pPHT1;4:GUS-GFP gene fusion. This fusion was then introduced into the Arabidopsis genome via the Agrobacterium-mediated transformation system (Logemann et al., 2006).
Plants were examined for GUS activity by dipping the samples in a GUS staining solution (50 mM sodium phosphate buffer pH 7.0; 0.01% Triton X-100, 1 mM K3Fe(CN)6, 1 mM K4Fe(CN)6, 1 mg/ml 5-dromo-4-chloro-3-indolyl (3-D-GLUCURONIDE (X-Gluc A) and incubated at 37° C. over-night. After staining, the plants were fixed 2 hours in 50 mM sodium phosphate buffer pH 7.0; 1% glutaraldehyde; 4% formaldehyde.

wild-type seedlings = assay: Free cellular Pi content (malachite green method); type: in vivo, A. thaliana; settings: high phosphate medium + MC2 5 μM vs control condition, FIG. 3
Description: Three replicates were performed for each experiment. After 5 min of centrifugation, the supernatant was recovered. Phosphate content was measured using the malachite green method as described (Delhaize and Randall, 1995). One hundred and fifty microliters of molybdate solution (17.55 g/l (NH4)6Mo7, 4H2O, 2M H2SO4) were added to the sample (50 μl) diluted in water (700 μl). Ten minutes later, 150 μl of green malachite solution (3.5 g/l polyvinylic alcohol, 0.35 g/l malachite green) were then added. Measurements were carried out at 610 nm after 2 h. Concentrations were calculated using a calibration curve (performed with aKH2PO4 solution) and expressed per fresh weight. To evaluate if this expression interferes with phosphate content, phosphate content was analyzed in different conditions: high phosphate medium (+Pi), low phosphate medium (−Pi) and high phosphate medium+MC2, 5 μM (+Pi, +MC2 5 μM). […] This phosphate accumulation can be easily explained by the overexpression of the phosphate transporter.

- PLDζ2 expression (in words) (phopholipase Dz2): strongly expressed
SMILES: Cc1cccc(NC=C2C(=O)CC(C)(C)CC2=O)n1 [MC2]
- growth of roots in a Pi deficient medium (Medicago truncatula): improved
- ferritin accumulation (Western blot) (ferritin): not in response to MC2 treatment
- meristematic activity (CycB1 expression, in words) (Cyclin B1): not reduced
- IRT1 expression (in words) (iron transporter IRT1): inhibits IRT1 expression
- Root Growth (A. thaliana): 51 % of control
- PHT1;4 expression (in words, summary of analogues) [1]: induce expression of the Pht1;4 gene
- phosphate accumulation in leaves (wild-type seedlings): two times more
- phosphate accumulation in roots (wild-type seedlings): two times more

From patent US9028855B2, “Plant additives and uses thereof to modulate the synthesis of membrane glycerolipids in planta” (Commissariat a l'Energie Atomique et aux Energies …, priority 2009, dated 2015)
